# Data from patent KR20230001519A, “근위 단백질 변형 반응을 이용한 신규한 약물 결합 단백질의 동정” (서울대학교산학협력단, priority 2021, dated 2023).
# Structures can show the parent of a compound that is named as a salt.
# What was measured:
# [1] = biological target: T1, TOM20-KDABL1 (Homo sapiens, UniProt P00519); test: In cellulo mitochondrial translocation of HT-TurbID to TOM20-KDABL1; type: cell-based; details: data not shown
# T1 construct: KDABL1, 아미노산 239-512, Uniprot ID: P00519; expressed in transfected cells
# T1 sequence (P00519 239-512): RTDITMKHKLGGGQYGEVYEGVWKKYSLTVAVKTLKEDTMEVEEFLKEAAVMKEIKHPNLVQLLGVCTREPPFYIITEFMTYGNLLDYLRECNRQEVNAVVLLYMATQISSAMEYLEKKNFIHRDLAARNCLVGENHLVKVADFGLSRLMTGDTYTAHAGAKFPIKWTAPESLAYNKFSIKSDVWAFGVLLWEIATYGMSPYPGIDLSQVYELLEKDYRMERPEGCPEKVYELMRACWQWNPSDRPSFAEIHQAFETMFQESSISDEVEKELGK
# [2] = biological target: T2, RIOK1 (Homo sapiens, UniProt Q9BRS2); test: PROCID mass analysis, RIOK1; type: cell-based; details: RIOK1, K562
# T2 construct: endogenous in cells; host or cells: K562 stably expressing HT-V5-TurbID
# T2 sequence (Q9BRS2 1-568): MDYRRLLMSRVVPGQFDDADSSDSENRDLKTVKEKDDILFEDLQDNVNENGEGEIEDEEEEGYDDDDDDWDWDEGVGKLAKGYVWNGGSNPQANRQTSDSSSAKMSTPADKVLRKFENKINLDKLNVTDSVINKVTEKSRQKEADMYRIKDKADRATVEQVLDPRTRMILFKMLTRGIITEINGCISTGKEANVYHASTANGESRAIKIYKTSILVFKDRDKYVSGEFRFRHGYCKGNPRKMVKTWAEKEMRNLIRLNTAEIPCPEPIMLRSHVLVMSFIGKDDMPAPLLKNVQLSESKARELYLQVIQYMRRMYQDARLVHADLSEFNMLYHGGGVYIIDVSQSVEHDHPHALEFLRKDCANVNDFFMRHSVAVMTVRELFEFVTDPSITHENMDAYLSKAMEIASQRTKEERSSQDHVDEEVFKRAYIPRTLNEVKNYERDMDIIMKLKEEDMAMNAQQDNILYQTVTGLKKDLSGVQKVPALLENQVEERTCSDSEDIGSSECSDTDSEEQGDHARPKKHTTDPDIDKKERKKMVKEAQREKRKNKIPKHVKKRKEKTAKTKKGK
# [3] = test system: dasatinib binding proteins of K562 cells (K562 세포의 다사티닙 결합 단백질); test: PROCID mass analysis of biotinylated proteins (dasatinib interactors, group I); type: cell-based, Homo sapiens; details: K562, 500 nM, 3 h
# [4] = test system: HT-TurbID stably expressing K562 cells (HT-TurbID를 안정적으로 발현하는 K562 세포주); test: Biotinylation in K562 cells stably expressing HT-TurbID (streptavidin-HRP western blot); type: cell-based, human
# [5] = biological target: T3, ABL2 (Homo sapiens, UniProt P42684); test: PROCID mass analysis, ABL2; type: cell-based; details: ABL2, K562
# T3 construct: endogenous in cells; host or cells: K562 stably expressing HT-V5-TurbID
# [6] = test system: Ba/F3 cells (Ba/F3 세포); test: CCK-8 growth inhibition, Ba/F3; type: cell-based, mouse; details: Ba/F3, 72 h
# [7] = biological target: T4, BTK (Mus musculus, UniProt P35991); test: In cellulo translocation assay, BTK-mCherry to HT-TurbID-MoA; type: cell-based; set-up: host or cells: U2OS (translocation, A16; reproduced in COS-7)
# [8] = biological target: T5, SMARCA2 (Homo sapiens, UniProt P51531); test: PROCID mass analysis, SMARCA2; type: cell-based
# T5 construct: endogenous in cells; host or cells: K562 stably expressing HT-V5-TurbID
# [9] = test system: HaloTag protein (할로택 단백질); test: In vitro competition assay of HaloTag ligand (dansyl-HTL, in-gel fluorescence); type: binding; details: competition with dansyl-HTL; purified HaloTag 10 μM, compound 10 μM; data not shown
# [10] = biological target: T6, KDABL1 (Homo sapiens, UniProt P00519); test: Proximity biotinylation of HA-KDABL1 by HT-TurbID (PL-IP, western blot); type: cell-based; set-up: KDABL1, 아미노산 239-512, Uniprot ID: P00519; expressed in transfected cells; host or cells: HEK293T (PL-IP, A6); details: HEK293T, 500 nM, 3 h; biotin 100 μM, 30 min; SA-HRP western blot
# T6 sequence (P00519 239-512): T1 sequence (P00519 239-512)
# [11] = test system: ABL1; test: PROCID mass analysis, ABL1; type: cell-based, Homo sapiens; details: ABL1, K562
# [12] = biological target: T7, TOM20-HA-KDABL1 (Homo sapiens, UniProt P00519); test: Proximity biotinylation of TOM20-HA-KDABL1 by HT-TurbID; type: cell-based; details: HT-TurbID in cytosol; data not shown
# T7 construct: KDABL1, 아미노산 239-512, Uniprot ID: P00519; expressed in transfected cells
# T7 sequence (P00519 239-512): T1 sequence (P00519 239-512)
# [13] = biological target: T8, BTK (Homo sapiens, UniProt Q06187); test: PROCID mass analysis, BTK; type: cell-based
# T8 construct: endogenous in cells; host or cells: K562 stably expressing HT-V5-TurbID
# [14] = biological target: T6, KDABL1; test: In cellulo translocation assay of KDABL1 to mitochondrial HT-TurbID-MoA (confocal); type: cell-based; set-up: KDABL1, 아미노산 239-512, Uniprot ID: P00519; expressed in transfected cells; host or cells: U2OS (translocation, A4); details: U2OS, 500 nM, 3 h
# [15] = biological target: T9, CSK (Homo sapiens, UniProt P41240); test: PL-IP biotinylation of CSK-EGFP; type: cell-based
# [16] = biological target: T9, CSK; test: PROCID mass analysis, CSK; type: cell-based; set-up: endogenous in cells; host or cells: K562 stably expressing HT-V5-TurbID
# [17] = test system: K562 cells (K562 세포); test: CCK-8 growth inhibition, K562; type: cell-based, human; details: K562, 72 h
# [18] = biological target: T4, BTK; test: PL-IP biotinylation of BTK-mCherry; type: cell-based
# [19] = biological target: T9, CSK; test: In cellulo translocation assay, CSK-EGFP to HT-TurbID-MoA; type: cell-based; set-up: host or cells: U2OS (translocation, A17; reproduced in COS-7)
# [20] = biological target: T10, ABDSMARCA2 (Homo sapiens, UniProt P51531); test: Translocation and PL-IP assays with ATP binding domain of SMARCA2; type: cell-based; details: concluded from translocation of ABDSMARCA2 to mitochondria-targeted HT-TurbID
# T10 construct: ABD SMARCA2(736-901aa 헬리카제-ATP 결합 도메인)-HA; expressed in transfected cells; host or cells: HEK293-AD
# [21] = biological target: T9, CSK; set-up: host or cells: U2OS (translocation, A17; reproduced in COS-7); HEK293T (PL-IP, A19); details: in vitro characterization; cited from earlier work
# [22] = HEK293T, 3 h, SA-HRP western blot
# T4 sequence (P35991 whole entry): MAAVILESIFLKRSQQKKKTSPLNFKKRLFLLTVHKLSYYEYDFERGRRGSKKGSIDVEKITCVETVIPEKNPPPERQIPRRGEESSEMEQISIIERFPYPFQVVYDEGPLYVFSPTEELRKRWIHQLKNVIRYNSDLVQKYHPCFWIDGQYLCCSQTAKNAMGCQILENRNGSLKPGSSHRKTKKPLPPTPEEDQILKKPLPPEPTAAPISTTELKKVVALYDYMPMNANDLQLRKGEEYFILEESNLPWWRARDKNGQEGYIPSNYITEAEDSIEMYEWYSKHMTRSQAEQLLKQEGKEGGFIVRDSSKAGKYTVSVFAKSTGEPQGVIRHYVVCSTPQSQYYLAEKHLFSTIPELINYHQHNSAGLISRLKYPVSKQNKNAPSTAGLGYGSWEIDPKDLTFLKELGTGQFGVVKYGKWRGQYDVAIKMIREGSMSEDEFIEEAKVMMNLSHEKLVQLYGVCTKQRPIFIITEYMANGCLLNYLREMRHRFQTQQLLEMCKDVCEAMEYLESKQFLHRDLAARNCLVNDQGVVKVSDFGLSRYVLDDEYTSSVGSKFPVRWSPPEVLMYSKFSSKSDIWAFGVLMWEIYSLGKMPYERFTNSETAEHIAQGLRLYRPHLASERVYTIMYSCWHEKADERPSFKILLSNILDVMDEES
# T9 sequence (P41240 whole entry): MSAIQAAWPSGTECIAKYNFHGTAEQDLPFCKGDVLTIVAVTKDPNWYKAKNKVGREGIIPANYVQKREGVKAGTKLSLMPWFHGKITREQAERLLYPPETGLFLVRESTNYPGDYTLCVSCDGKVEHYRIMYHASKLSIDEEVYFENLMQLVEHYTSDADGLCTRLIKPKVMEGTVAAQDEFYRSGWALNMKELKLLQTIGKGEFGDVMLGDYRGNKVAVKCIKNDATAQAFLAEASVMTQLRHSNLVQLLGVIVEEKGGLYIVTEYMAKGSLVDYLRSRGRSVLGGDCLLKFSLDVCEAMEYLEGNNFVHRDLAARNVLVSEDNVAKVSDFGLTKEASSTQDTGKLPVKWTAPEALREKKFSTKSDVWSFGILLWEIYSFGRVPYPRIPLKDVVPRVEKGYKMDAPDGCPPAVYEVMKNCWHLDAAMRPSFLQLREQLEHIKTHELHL
# T5 sequence (P51531 whole entry): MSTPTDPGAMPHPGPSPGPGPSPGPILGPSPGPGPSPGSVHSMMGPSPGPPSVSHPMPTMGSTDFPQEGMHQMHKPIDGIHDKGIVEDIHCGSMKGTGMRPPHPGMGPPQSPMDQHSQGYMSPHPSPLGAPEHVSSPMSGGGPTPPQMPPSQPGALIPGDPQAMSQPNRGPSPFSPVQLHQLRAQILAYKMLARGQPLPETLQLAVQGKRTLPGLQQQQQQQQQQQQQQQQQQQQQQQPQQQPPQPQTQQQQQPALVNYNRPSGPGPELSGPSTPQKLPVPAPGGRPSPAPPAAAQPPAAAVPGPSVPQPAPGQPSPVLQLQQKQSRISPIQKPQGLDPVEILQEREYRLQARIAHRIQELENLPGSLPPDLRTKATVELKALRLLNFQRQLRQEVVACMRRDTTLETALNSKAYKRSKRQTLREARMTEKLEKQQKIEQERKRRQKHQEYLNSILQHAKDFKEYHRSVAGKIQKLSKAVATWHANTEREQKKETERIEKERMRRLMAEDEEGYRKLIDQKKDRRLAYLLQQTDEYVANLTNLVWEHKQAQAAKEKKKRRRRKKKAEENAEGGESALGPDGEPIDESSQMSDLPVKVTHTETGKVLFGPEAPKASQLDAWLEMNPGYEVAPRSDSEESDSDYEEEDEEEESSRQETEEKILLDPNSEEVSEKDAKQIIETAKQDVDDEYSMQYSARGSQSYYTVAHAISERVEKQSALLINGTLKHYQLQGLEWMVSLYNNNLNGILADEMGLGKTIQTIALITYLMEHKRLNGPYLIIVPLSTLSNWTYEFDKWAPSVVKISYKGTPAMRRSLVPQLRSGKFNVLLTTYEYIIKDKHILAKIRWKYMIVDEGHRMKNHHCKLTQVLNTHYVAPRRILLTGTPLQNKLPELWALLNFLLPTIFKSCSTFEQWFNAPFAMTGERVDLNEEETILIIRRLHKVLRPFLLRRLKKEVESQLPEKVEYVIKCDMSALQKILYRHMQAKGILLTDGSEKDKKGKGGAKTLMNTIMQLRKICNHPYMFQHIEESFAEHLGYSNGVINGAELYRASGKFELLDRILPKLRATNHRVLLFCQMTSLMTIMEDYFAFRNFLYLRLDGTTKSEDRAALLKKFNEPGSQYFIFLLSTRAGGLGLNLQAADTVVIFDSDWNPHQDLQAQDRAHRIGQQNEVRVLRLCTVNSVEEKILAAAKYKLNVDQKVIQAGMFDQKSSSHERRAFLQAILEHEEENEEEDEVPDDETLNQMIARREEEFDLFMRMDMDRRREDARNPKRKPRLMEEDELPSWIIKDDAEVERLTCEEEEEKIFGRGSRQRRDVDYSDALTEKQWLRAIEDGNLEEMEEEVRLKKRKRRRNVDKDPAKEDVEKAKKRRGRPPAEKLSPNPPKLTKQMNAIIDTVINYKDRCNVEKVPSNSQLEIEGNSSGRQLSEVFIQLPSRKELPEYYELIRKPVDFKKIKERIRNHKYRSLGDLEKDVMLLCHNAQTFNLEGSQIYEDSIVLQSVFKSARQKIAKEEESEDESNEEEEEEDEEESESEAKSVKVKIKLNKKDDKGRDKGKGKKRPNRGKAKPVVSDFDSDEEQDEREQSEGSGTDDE
# T8 sequence (Q06187 whole entry): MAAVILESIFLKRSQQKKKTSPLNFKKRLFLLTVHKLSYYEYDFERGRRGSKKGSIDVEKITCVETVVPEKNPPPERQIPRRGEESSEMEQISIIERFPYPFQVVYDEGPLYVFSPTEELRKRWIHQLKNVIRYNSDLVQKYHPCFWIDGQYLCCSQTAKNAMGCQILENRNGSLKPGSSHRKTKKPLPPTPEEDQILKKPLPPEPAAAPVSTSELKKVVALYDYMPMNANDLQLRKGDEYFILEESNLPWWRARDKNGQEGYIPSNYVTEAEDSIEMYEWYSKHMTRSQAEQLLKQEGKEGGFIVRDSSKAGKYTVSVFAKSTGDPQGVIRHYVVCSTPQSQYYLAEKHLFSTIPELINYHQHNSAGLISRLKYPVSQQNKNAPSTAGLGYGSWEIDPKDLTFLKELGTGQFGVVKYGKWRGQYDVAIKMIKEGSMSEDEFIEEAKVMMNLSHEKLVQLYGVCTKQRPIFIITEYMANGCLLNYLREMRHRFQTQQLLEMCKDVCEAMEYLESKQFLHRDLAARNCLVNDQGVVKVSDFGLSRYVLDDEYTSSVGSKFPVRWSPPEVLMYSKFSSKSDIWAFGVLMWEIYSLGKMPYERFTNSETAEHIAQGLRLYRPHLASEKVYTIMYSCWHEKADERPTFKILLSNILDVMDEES
# T10 sequence (P51531 736-901): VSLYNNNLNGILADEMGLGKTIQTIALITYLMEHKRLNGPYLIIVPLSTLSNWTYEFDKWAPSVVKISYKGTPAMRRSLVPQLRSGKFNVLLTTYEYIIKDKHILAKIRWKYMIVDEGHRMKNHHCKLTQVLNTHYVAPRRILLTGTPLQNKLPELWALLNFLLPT
# T3 sequence (P42684 whole entry): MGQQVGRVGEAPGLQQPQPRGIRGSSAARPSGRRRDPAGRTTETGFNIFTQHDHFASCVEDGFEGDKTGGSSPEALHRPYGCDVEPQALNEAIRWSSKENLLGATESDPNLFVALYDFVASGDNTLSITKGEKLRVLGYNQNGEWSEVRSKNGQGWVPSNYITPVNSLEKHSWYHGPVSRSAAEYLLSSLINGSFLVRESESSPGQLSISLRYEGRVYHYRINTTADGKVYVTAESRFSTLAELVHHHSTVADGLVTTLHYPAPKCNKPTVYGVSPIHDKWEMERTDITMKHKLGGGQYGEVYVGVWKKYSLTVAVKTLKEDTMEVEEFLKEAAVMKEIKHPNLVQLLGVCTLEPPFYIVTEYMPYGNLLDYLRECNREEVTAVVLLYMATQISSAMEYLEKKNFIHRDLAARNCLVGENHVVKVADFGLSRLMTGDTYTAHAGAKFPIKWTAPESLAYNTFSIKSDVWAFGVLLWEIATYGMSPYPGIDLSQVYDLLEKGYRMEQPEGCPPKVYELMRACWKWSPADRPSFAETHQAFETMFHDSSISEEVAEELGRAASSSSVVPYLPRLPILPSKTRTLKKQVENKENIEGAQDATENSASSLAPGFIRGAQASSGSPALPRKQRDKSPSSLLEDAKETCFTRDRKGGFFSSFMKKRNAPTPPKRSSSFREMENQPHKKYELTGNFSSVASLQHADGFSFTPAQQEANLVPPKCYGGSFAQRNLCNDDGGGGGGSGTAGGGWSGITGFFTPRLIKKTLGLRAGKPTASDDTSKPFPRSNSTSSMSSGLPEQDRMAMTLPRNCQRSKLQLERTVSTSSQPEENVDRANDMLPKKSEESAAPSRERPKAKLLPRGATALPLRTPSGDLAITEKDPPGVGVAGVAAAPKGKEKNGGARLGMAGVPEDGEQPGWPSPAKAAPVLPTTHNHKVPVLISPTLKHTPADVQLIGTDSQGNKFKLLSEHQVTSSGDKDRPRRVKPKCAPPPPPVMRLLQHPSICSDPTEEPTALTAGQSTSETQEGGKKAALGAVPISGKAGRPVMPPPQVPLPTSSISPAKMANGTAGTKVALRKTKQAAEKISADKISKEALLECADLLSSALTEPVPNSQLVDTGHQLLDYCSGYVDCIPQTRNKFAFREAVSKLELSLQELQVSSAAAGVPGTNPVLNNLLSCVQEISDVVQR
compound,measurement,setting,value
"Cc1nc(Nc2ncc(C(=O)Nc3c(C)cccc3Cl)s2)cc(N2CCN(CCOC(=O)NCCOCCOCCOCCOCCOCCCCCCCl)CC2)n1 [DA5, 2-(4-(6-((5-((2-chloro-6-methylphenyl)carbamoyl)thiazol-2-yl)amino)-2-methylpyrimidin-4-yl)piperazin-1-yl)ethyl(21-chloro-3,6,9,12,15-pentaoxahenicosyl)carbamate trifluoroacetate salt]",mitochondrial translocation of HT-TurbID to TOM20-KDABL1,[1],미토콘드리아 전위가 확인되었다
same,biotinylation by HT-TurbID in DA5 treated sample,[2],고도로 바이오틴화
same,number of proteins reproducibly biotinylated only on DA5 treatment,"[3]; biotin 50 μM 30 min, P < 0.05, Log2(FC) > 1.2",33
same,number of proteins selected as dasatinib interactors (group I),[3]; includes SMARCA2,34
same,biotinylation reaction,[4],강력한 바이오틴화 반응
same,streptavidin-HRP western blot pattern compared with DA and DMSO,[4],미묘하게 차이가 있었다
same,biotinylation by HT-TurbID in DA5 treated sample,[5],고도로 바이오틴화
same,GI50,[6],서브마이크로몰 범위
same,DA5-dependent translocation,"[7]; BTK, COS-7, data not shown",그대로 재현되었다
same,Pearson's correlation coefficient,"[7]; BTK, U2OS, after DA5 treatment",급격히 증가
same,translocation from cytosol to mitochondria,"[7]; BTK-mCherry, U2OS, 500 nM, 3 h",세포질에서 미토콘드리아로 전위되는 것이 확인되었다
same,biotinylation by HT-TurbID in DA5 treated sample,"[8]; SMARCA2, K562",고도로 바이오틴화
same,fold change (FC) of biotinylation,"[8]; SMARCA2, K562, DA5 treated vs control, highest fold change",5.14
same,binding to HaloTag,[9],할로택에 잘 결합한다
same,biotinylation of KDABL1 by HT-TurbID,[10],DA5로 처리되었을 때만 KDABL1이 HT-TurbID에 의해 바이오틴화 된다
same,biotinylation by HT-TurbID in DA5 treated sample,[11],고도로 바이오틴화
same,biotinylation of TOM20-HA-KDABL1 by HT-TurbID,[12],재현 가능한 DA5 의존성 바이오틴화를 관찰
same,biotinylation by HT-TurbID in DA5 treated sample,[13]; K562,고도로 바이오틴화
same,biotinylated lysine residues,[13]; MS analysis,다수의 라이신 잔기가 DA5 처리된 HT-TurbID에 의해 바이오틴화 된다
same,translocation of KDABL1 from cytosol to mitochondria,[14],KDABL1의 효율적인 전위
same,DA5-dependent biotinylation,"[15]; CSK, HT-TurbID-MoA instead of HT-TurbID, data not shown",그대로 재현되었다
same,co-purification of HT-TurbID with bait protein,"[15]; CSK-EGFP, anti-HA pulldown",DA5 처리 샘플에서만 미끼 단백질과 공동 정제되었다
same,biotinylation of enriched CSK-EGFP,[15]; [22],DA5 처리 하에서만 바이오틴화되었다
same,biotinylation by HT-TurbID in DA5 treated sample,[16]; K562,고도로 바이오틴화
same,biotinylated lysine residues,[16]; MS analysis,다수의 라이신 잔기가 DA5 처리된 HT-TurbID에 의해 바이오틴화 된다
same,GI50,[17],서브마이크로몰 범위
same,DA5-dependent biotinylation,"[18]; BTK, HT-TurbID-MoA instead of HT-TurbID, data not shown",그대로 재현되었다
same,co-purification of HT-TurbID with bait protein,"[18]; BTK-mCherry, anti-HA pulldown",DA5 처리 샘플에서만 미끼 단백질과 공동 정제되었다
same,biotinylation of enriched BTK-mCherry,[18]; [22],DA5 처리 하에서만 바이오틴화되었다
same,DA5-dependent translocation,"[19]; CSK, COS-7, data not shown",그대로 재현되었다
same,Pearson's correlation coefficient,"[19]; CSK, U2OS, after DA5 treatment",급격히 증가
same,translocation from cytosol to mitochondria,"[19]; CSK-EGFP, U2OS, 500 nM, 3 h",세포질에서 미토콘드리아로 전위되는 것이 확인되었다
Cc1nc(Nc2ncc(C(=O)Nc3c(C)cccc3Cl)s2)cc(N2CCN(CCO)CC2)n1 [다사티닙],biotinylation reaction,[4],강력한 바이오틴화 반응
same,physical binding affinity of ABDSMARCA2 for dasatinib,[20],물리적 결합 친화성을 가지고 있으며
same,binding affinity for dasatinib,[21],다사티닙에 대한 결합 친화력이 있음
"Cc1nc(Nc2ncc(C(=O)Nc3c(C)cccc3Cl)s2)cc(N2CCN(CCOC(=O)NCCOCCOCCOCCCCCCCl)CC2)n1 [DA3, 2-(4-(6-((5-((2-chloro-6-methylphenyl)carbamoyl)thiazol-2-yl)amino)-2-methylpyrimidin-4-yl)piperazin-1-yl)ethyl(2-(2-(2-((6-chlorohexyl)oxy)ethoxy)ethoxy)ethyl)carbamate trifluoroacetate salt]",GI50,[6],서브마이크로몰 범위
same,binding to HaloTag,[9],할로택에 잘 결합한다
same,GI50,[17],서브마이크로몰 범위
